Measurements taken from the supplement of paper PMC13380429.

Tests used:
Details in all cases: 72 h
[1] = system: U2OS; assay: relative viability EC50 (midpoint between 100% and the lowest measured viability); higher = less toxic
[2] = system: Caco-2; assay: as above
[3] = system: Vero E6; assay: as above
[4] = system: HepG2; assay: as above
[5] = system: U2OS; assay: cell viability relative to DMSO; higher = less toxic
[6] = system: Caco-2; assay: as above
[7] = system: Vero E6; assay: as above
[8] = system: HepG2; assay: as above
[9] = system: U2OS; assay: drug sensitivity score (DSS) for viability; higher = more toxic; extreme values may be limits of the assay
[10] = system: Caco-2; assay: as above
[11] = system: Vero E6; assay: as above
[12] = system: HepG2; assay: as above
[13] = system: Calu-3; assay: cell viability relative to DMSO; higher = less toxic
[14] = system: Calu-3; assay: drug sensitivity score (DSS) for viability; higher = more toxic; extreme values may be limits of the assay
[15] = system: Calu-3; assay: relative viability EC50 (midpoint between 100% and the lowest measured viability); higher = less toxic

Row | Structure (SMILES) | relative viability EC50 [1] | relative viability EC50 [2] | relative viability EC50 [3] | relative viability EC50 [4] | cell viability ([5]; 1 nM) | cell viability ([5]; 10 nM) | cell viability ([5]; 100 nM) | cell viability ([5]; 1000 nM) | cell viability ([5]; 10000 nM) | cell viability ([6]; 1 nM) | cell viability ([6]; 10 nM) | cell viability ([6]; 100 nM) | cell viability ([6]; 1000 nM) | cell viability ([6]; 10000 nM) | cell viability ([7]; 1 nM) | cell viability ([7]; 10 nM) | cell viability ([7]; 100 nM) | cell viability ([7]; 1000 nM) | cell viability ([7]; 10000 nM) | cell viability ([8]; 1 nM) | cell viability ([8]; 10 nM) | cell viability ([8]; 100 nM) | cell viability ([8]; 1000 nM) | cell viability ([8]; 10000 nM) | drug sensitivity score [9] | drug sensitivity score [10] | drug sensitivity score [11] | drug sensitivity score [12] | cell viability ([13]; 1 nM) | cell viability ([13]; 10 nM) | cell viability ([13]; 100 nM) | cell viability ([13]; 1000 nM) | cell viability ([13]; 10000 nM) | drug sensitivity score [14] | relative viability EC50 [15]
1 | CN1CCN(c2cc(-c3ccccc3)nc(N)n2)CC1 | > 10 µM | > 10 µM | > 10 µM | > 10 µM | 96.8% | 98.3% | 97.6% | 98% | 102% | 92.8% | 99% | 95.1% | 91.8% | 93% | 98.9% | 95.4% | 90.5% | 94.8% | 103% | 87.5% | 105% | 87.8% | 95.6% | 116% | 0 | 0 | 0 | 0 |  |  |  |  |  |  | 
2 | COc1ccc2nc3ccc(Cl)cc3c(SCCCN)c2c1 | > 10 µM | > 10 µM | > 10 µM | > 10 µM | 98.8% | 101% | 98.4% | 104% | 98.8% | 94.9% | 99.7% | 93.9% | 93.5% | 99.2% | 99.7% | 93.7% | 93.4% | 93.2% | 109% | 98.6% | 106% | 98.8% | 106% | 101% | 0 | 0 | 0 | 0 |  |  |  |  |  |  | 
3 | Cc1ccc2nc(NCCN)c3ncc(C)n3c2c1 | 3.04 µM |  | 1.86 µM | 1.69 µM | 95.2% | 96.1% | 94.6% | 98.7% | 28.4% | 95.8% | 95.9% | 95.8% | 102% | 66% | 102% | 92.6% | 94.5% | 90.3% | 44% | 111% | 100% | 86.6% | 79.6% | 3.6% | 4.1 | 1.4 | 4.6 | 8.6 | 91.9% | 93% | 89.4% | 102% | 70.2% | 1.2 | 
4 | OCCCNc1cc(-c2ccnc(Nc3cccc(Cl)c3)n2)ccn1 | 0.237 µM | 0.223 µM | 0.178 µM | 0.266 µM | 101% | 95% | 90.9% | 5.8% | 13% | 95.9% | 97.1% | 91.6% | 26.1% | 31.8% | 94.5% | 108% | 81.9% | 5.3% | 15.6% | 93.6% | 111% | 93% | 7.7% | 5.6% | 18.5 | 14.9 | 20.1 | 17.9 |  |  |  |  |  |  | 
5 | N=C(N)NC(=N)Nc1ccccc1 [1-phenylbiguanide] | > 10 µM | > 10 µM | > 10 µM | > 10 µM | 99.3% | 97.7% | 103% | 101% | 100% | 96.3% | 94.8% | 95.5% | 92.4% | 98.8% | 100% | 93.4% | 94.8% | 99.4% | 101% | 97.3% | 106% | 103% | 109% | 101% | 0 | 0 | 0 | 0 |  |  |  |  |  |  | 
6 | Brc1c(Br)c(Br)c2[nH]nnc2c1Br [4,5,6,7-tetrabromobenzotriazole] | > 10 µM | > 10 µM | > 10 µM | > 10 µM | 97.2% | 98% | 97.9% | 100% | 99.2% | 93.8% | 107% | 90.4% | 95.7% | 99.2% | 105% | 103% | 101% | 99.4% | 103% | 117% | 93.9% | 102% | 93.3% | 107% | 0 | 0 | 0 | 0 |  |  |  |  |  |  | 
7 | O=C(Cc1cccc(OC(F)(F)F)c1)Nc1ccc(CCCCc2nnc(NC(=O)Cc3ccccn3)s2)nn1 [CB-839] | > 10 µM | > 10 µM |  |  | 99.6% | 105% | 92.6% | 75.9% | 82% | 94.9% | 98.7% | 101% | 105% | 106% | 95.7% | 93.9% | 89.5% | 65.2% | 65.3% | 96.7% | 89.2% | 78.1% | 66.1% | 71.4% | 4.7 | 0 | 7.1 | 8.4 | 107% | 102% | 89.5% | 89.1% | 86.6% | 1.5 | > 10 µM
8 | COc1cc2c(cc1OC(C)C)[C@H](c1ccc(Cl)cc1)N(c1ccc(N(C)C[C@H]3CC[C@H](N4CCN(C)C(=O)C4)CC3)cc1)C(=O)C2 [CGM097] | 2.36 µM | > 10 µM | 1.45 µM | 1.31 µM | 98.1% | 104% | 94.7% | 94.6% | 44.8% | 96.6% | 105% | 93.6% | 98.8% | 85.9% | 102% | 105% | 95.1% | 83.3% | 46.9% | 104% | 109% | 100% | 75.2% | 26.1% | 3.8 | 0.3 | 5 | 7.6 |  |  |  |  |  |  | 
9 | O=C(CCCCCCCn1cc(-c2cccnc2)nn1)Nc1ccccc1-c1ccccc1 [GPP-78] | 0.365 µM | 0.352 µM | 0.0395 µM | 0.415 µM | 101% | 99.7% | 110% | 0.2% | 0.1% | 109% | 97.9% | 106% | 4% | 3.6% | 99.2% | 103% | 8.7% | 2.1% | 2.7% | 96.6% | 92% | 103% | 25.4% | 18.8% | 17.2 | 16.8 | 28.7 | 13.6 |  |  |  |  |  |  | 
10 | COc1ccc(-n2c(SCc3nc(-c4ccc(C)cc4)no3)nnc2-c2ccncc2)cc1 [JW-74] | > 10 µM | > 10 µM |  | > 10 µM | 96.4% | 98.3% | 97% | 96% | 81.4% | 111% | 114% | 110% | 100% | 86.9% | 108% | 105% | 107% | 88.7% | 68.2% | 99.7% | 101% | 96.2% | 95.3% | 93.3% | 1 | 0.1 | 3 | 0 | 95.1% | 106% | 109% | 107% | 70.8% | 0.9 | 
11 | CCCCCCCC/C=C\CCCCCCCC(=O)NCCc1ccc(O)c(O)c1 [OLDA] | 2.58 µM |  |  |  | 101% | 99.1% | 98.3% | 94.6% | 25.9% | 98.1% | 90.4% | 96.7% | 92% | 61.9% | 106% | 101% | 99% | 99.2% | 61.7% | 98.1% | 107% | 100% | 103% | 56.3% | 4.9 | 3.2 | 2 | 2 | 105% | 98.6% | 97.9% | 103% | 104% | 0 | > 10 µM
12 | CCCCCOc1ccc(-c2ccc(-c3ccc(C(=O)N[C@H]4C[C@@H](O)[C@@H](O)NC(=O)[C@@H]5[C@@H](O)[C@@H](C)CN5C(=O)[C@H]([C@@H](C)O)NC(=O)[C@H]([C@H](O)[C@@H](O)c5ccc(O)cc5)NC(=O)[C@@H]5C[C@@H](O)CN5C(=O)[C@H]([C@@H](C)O)NC4=O)cc3)cc2)cc1 [anidulafungin] | > 10 µM |  | > 10 µM |  | 94.8% | 95.6% | 96.8% | 98.1% | 94% | 110% | 106% | 105% | 105% | 59.2% | 94.8% | 102% | 104% | 101% | 100% | 97.4% | 104% | 97.6% | 97.1% | 68.7% | 0 | 1.7 | 0 | 1.9 | 99.6% | 90.1% | 96.6% | 83.2% | 90.5% | 0.5 | > 10 µM
